Measurements reported in PubChem BioAssay AID1745844 (Carcinogenic Potency Database (CPDB), 2022).
The source made the active and inactive calls. The rule behind the calls is not given here.

System: rodent lifetime carcinogenesis bioassay, tumor incidence TD50
Experiment: carcinogenic potency in animals, long-term in vivo studies, CPDB compilation (AID 1745844)

CN(N)C=O
TD50 (hamster, strain Syrian Golden, females, in drinking water, site: all sites, lesion: histiocytoma, malignant, dosed 102 weeks, study length 102 weeks): 4.71 mg/kg/day | TD50 (hamster, strain Syrian Golden, females, in drinking water, site: any site (literature study), lesion: several types, types named in the paper, dosed 102 weeks, study length 102 weeks): 6.04 mg/kg/day | TD50 (hamster, strain Syrian Golden, females, in drinking water, site: gall bladder, lesion: several types, types named in the paper, dosed 102 weeks, study length 102 weeks): 29.1 mg/kg/day | TD50 (hamster, strain Syrian Golden, females, in drinking water, site: liver, lesion: hepatoma, dosed 102 weeks, study length 102 weeks): 28.3 mg/kg/day | TD50 (hamster, strain Syrian Golden, females, in drinking water, site: liver, lesion: liver-cell carcinoma, dosed 102 weeks, study length 102 weeks): 25.1 mg/kg/day | TD50 (hamster, strain Syrian Golden, females, in drinking water, site: liver, lesion: several types, types named in the paper, dosed 102 weeks, study length 102 weeks): 11.3 mg/kg/day | TD50 (hamster, strain Syrian Golden, males, in drinking water, site: all sites, lesion: histiocytoma, malignant, dosed 102 weeks, study length 102 weeks): 12.7 mg/kg/day | TD50 (hamster, strain Syrian Golden, males, in drinking water, site: any site (literature study), lesion: several types, types named in the paper, dosed 102 weeks, study length 102 weeks): 4.89 mg/kg/day | TD50 (hamster, strain Syrian Golden, males, in drinking water, site: bile duct, lesion: several types, types named in the paper, dosed 102 weeks, study length 102 weeks): 19.7 mg/kg/day | TD50 (hamster, strain Syrian Golden, males, in drinking water, site: gall bladder, lesion: papillary adenoma, dosed 102 weeks, study length 102 weeks): 42.5 mg/kg/day | TD50 (hamster, strain Syrian Golden, males, in drinking water, site: gall bladder, lesion: several types, types named in the paper, dosed 102 weeks, study length 102 weeks): 25.3 mg/kg/day | TD50 (hamster, strain Syrian Golden, males, in drinking water, site: liver, lesion: hepatoma, dosed 102 weeks, study length 102 weeks): 13.3 mg/kg/day | TD50 (hamster, strain Syrian Golden, males, in drinking water, site: liver, lesion: liver-cell carcinoma, dosed 102 weeks, study length 102 weeks): 30 mg/kg/day | TD50 (hamster, strain Syrian Golden, males, in drinking water, site: liver, lesion: several types, types named in the paper, dosed 102 weeks, study length 102 weeks): 7.55 mg/kg/day | TD50 (mouse, strain Swiss albino, females, in drinking water, site: blood vessels, lesion: several types, types named in the paper, dosed 92 weeks, study length 92 weeks): 12.2 mg/kg/day | TD50 (mouse, strain Swiss albino, females, in drinking water, site: blood vessels, lesion: several types, types named in the paper, dosed 99 weeks, study length 100 weeks): 6.04 mg/kg/day | TD50 (mouse, strain Swiss albino, females, in drinking water, site: gall bladder, lesion: adenoma, dosed 65 weeks, study length 73 weeks): 31.5 mg/kg/day | TD50 (mouse, strain Swiss albino, females, in drinking water, site: gall bladder, lesion: adenoma, dosed 92 weeks, study length 92 weeks): 39.7 mg/kg/day | TD50 (mouse, strain Swiss albino, females, in drinking water, site: gall bladder, lesion: several types, types named in the paper, dosed 92 weeks, study length 92 weeks): 31.3 mg/kg/day | TD50 (mouse, strain Swiss albino, females, in drinking water, site: gall bladder, lesion: several types, types named in the paper, dosed 99 weeks, study length 100 weeks): 57.9 mg/kg/day | TD50 (mouse, strain Swiss albino, females, in drinking water, site: liver, lesion: angioma, dosed 97 weeks, study length 102 weeks): 23.8 mg/kg/day (inactive) | TD50 (mouse, strain Swiss albino, females, in drinking water, site: liver, lesion: hepatoma, benign, dosed 92 weeks, study length 92 weeks): 17.5 mg/kg/day | TD50 (mouse, strain Swiss albino, females, in drinking water, site: liver, lesion: hepatoma, benign, dosed 99 weeks, study length 100 weeks): 24.7 mg/kg/day | TD50 (mouse, strain Swiss albino, females, in drinking water, site: liver, lesion: hepatoma, dosed 65 weeks, study length 73 weeks): 19.5 mg/kg/day | TD50 (mouse, strain Swiss albino, females, in drinking water, site: liver, lesion: hepatoma, dosed 97 weeks, study length 102 weeks): 9.23 mg/kg/day (inactive) | TD50 (mouse, strain Swiss albino, females, in drinking water, site: liver, lesion: liver-cell carcinoma, dosed 65 weeks, study length 73 weeks): 19.9 mg/kg/day | TD50 (mouse, strain Swiss albino, females, in drinking water, site: liver, lesion: liver-cell carcinoma, dosed 92 weeks, study length 92 weeks): 22.4 mg/kg/day | TD50 (mouse, strain Swiss albino, females, in drinking water, site: liver, lesion: several types, types named in the paper, dosed 65 weeks, study length 73 weeks): 10.4 mg/kg/day | TD50 (mouse, strain Swiss albino, females, in drinking water, site: liver, lesion: several types, types named in the paper, dosed 92 weeks, study length 92 weeks): 8.66 mg/kg/day | TD50 (mouse, strain Swiss albino, females, in drinking water, site: lung, lesion: adenocarcinoma, dosed 97 weeks, study length 102 weeks): 1.12 mg/kg/day | TD50 (mouse, strain Swiss albino, females, in drinking water, site: lung, lesion: adenoma, dosed 97 weeks, study length 102 weeks): 1.5 mg/kg/day | TD50 (mouse, strain Swiss albino, females, in drinking water, site: lung, lesion: several types, types named in the paper, dosed 65 weeks, study length 73 weeks): 6.44 mg/kg/day | TD50 (mouse, strain Swiss albino, females, in drinking water, site: lung, lesion: several types, types named in the paper, dosed 92 weeks, study length 92 weeks): 2.16 mg/kg/day | TD50 (mouse, strain Swiss albino, females, in drinking water, site: lung, lesion: several types, types named in the paper, dosed 97 weeks, study length 102 weeks): 0.745 mg/kg/day | TD50 (mouse, strain Swiss albino, females, in drinking water, site: lung, lesion: several types, types named in the paper, dosed 99 weeks, study length 100 weeks): 0.921 mg/kg/day | TD50 (mouse, strain Swiss albino, males, in drinking water, site: bile duct, lesion: cholangioma, dosed 82 weeks, study length 82 weeks): 12.4 mg/kg/day | TD50 (mouse, strain Swiss albino, males, in drinking water, site: bile duct, lesion: several types, types named in the paper, dosed 65 weeks, study length 72 weeks): 36.2 mg/kg/day | TD50 (mouse, strain Swiss albino, males, in drinking water, site: blood vessels, lesion: several types, types named in the paper, dosed 96 weeks, study length 100 weeks): 3.47 mg/kg/day | TD50 (mouse, strain Swiss albino, males, in drinking water, site: forestomach, lesion: squamous-cell papilloma, dosed 97 weeks, study length 102 weeks): 11.2 mg/kg/day (inactive) | TD50 (mouse, strain Swiss albino, males, in drinking water, site: gall bladder, lesion: adenoma, dosed 65 weeks, study length 72 weeks): 38 mg/kg/day | TD50 (mouse, strain Swiss albino, males, in drinking water, site: gall bladder, lesion: adenoma, dosed 82 weeks, study length 82 weeks): 15.2 mg/kg/day | TD50 (mouse, strain Swiss albino, males, in drinking water, site: gall bladder, lesion: adenoma, dosed 96 weeks, study length 100 weeks): 9.88 mg/kg/day | TD50 (mouse, strain Swiss albino, males, in drinking water, site: gall bladder, lesion: several types, types named in the paper, dosed 96 weeks, study length 100 weeks): 9.1 mg/kg/day | TD50 (mouse, strain Swiss albino, males, in drinking water, site: liver, lesion: several types, types named in the paper, dosed 65 weeks, study length 72 weeks): 16.8 mg/kg/day | TD50 (mouse, strain Swiss albino, males, in drinking water, site: liver, lesion: several types, types named in the paper, dosed 82 weeks, study length 82 weeks): 1.03 mg/kg/day | TD50 (mouse, strain Swiss albino, males, in drinking water, site: liver, lesion: several types, types named in the paper, dosed 96 weeks, study length 100 weeks): 5.47 mg/kg/day | TD50 (mouse, strain Swiss albino, males, in drinking water, site: lung, lesion: adenocarcinoma, dosed 97 weeks, study length 102 weeks): 2.48 mg/kg/day | TD50 (mouse, strain Swiss albino, males, in drinking water, site: lung, lesion: adenoma, dosed 97 weeks, study length 102 weeks): 1.3 mg/kg/day | TD50 (mouse, strain Swiss albino, males, in drinking water, site: lung, lesion: several types, types named in the paper, dosed 65 weeks, study length 72 weeks): 14.2 mg/kg/day | TD50 (mouse, strain Swiss albino, males, in drinking water, site: lung, lesion: several types, types named in the paper, dosed 82 weeks, study length 82 weeks): 1.87 mg/kg/day | TD50 (mouse, strain Swiss albino, males, in drinking water, site: lung, lesion: several types, types named in the paper, dosed 96 weeks, study length 100 weeks): 1.72 mg/kg/day | TD50 (mouse, strain Swiss albino, males, in drinking water, site: lung, lesion: several types, types named in the paper, dosed 97 weeks, study length 102 weeks): 0.865 mg/kg/day | TD50 (mouse, strain Swiss albino, males, in drinking water, site: seminal vesicle, lesion: adenoma, dosed 82 weeks, study length 82 weeks): 20.7 mg/kg/day (inactive) | TD50 (mouse, strain Swiss albino, males, in drinking water, site: stomach, glandular, lesion: polypoid adenoma, dosed 97 weeks, study length 102 weeks): 3.43 mg/kg/day (inactive) | TD50 (mouse, strain Swiss albino, males, in drinking water, site: subcutaneous tissue, lesion: fibrosarcoma, dosed 97 weeks, study length 102 weeks): 2.6 mg/kg/day (inactive)

OCCOCCO
carcinogen call (rat, strain F344/DuCrj, females, in drinking water, site: any site (literature study), lesion: several types, types named in the paper, dosed 108 weeks, study length 108 weeks): negative (inactive) | carcinogen call (rat, strain F344/DuCrj, females, in drinking water, site: liver, lesion: neoplastic nodule, dosed 108 weeks, study length 108 weeks): negative (inactive) | carcinogen call (rat, strain F344/DuCrj, males, in drinking water, site: any site (literature study), lesion: several types, types named in the paper, dosed 108 weeks, study length 108 weeks): negative (inactive) | TD50 (rat, strain F344/DuCrj, males, in drinking water, site: liver, lesion: neoplastic nodule, dosed 108 weeks, study length 108 weeks): 34200 mg/kg/day (inactive) | TD50 (rat, strain Osborne-Mendel, males, in feed, site: urinary bladder, lesion: several types, types named in the paper, dosed 104 weeks, study length 104 weeks): 1660 mg/kg/day

CC(Oc1cc(Cl)ccc1Cl)C(=O)O (configuration not stated)
carcinogen call (mouse, strain B6AKF1, females, oral dosing, site: any site (literature study), lesion: several types, types named in the paper, dosed 76 weeks, study length 76 weeks): negative (inactive) | carcinogen call (mouse, strain B6AKF1, females, oral dosing, site: liver, lesion: hepatoma, dosed 76 weeks, study length 76 weeks): negative (inactive) | carcinogen call (mouse, strain B6AKF1, females, oral dosing, site: lung, lesion: adenoma, dosed 76 weeks, study length 76 weeks): negative (inactive) | carcinogen call (mouse, strain B6AKF1, males, oral dosing, site: any site (literature study), lesion: several types, types named in the paper, dosed 76 weeks, study length 76 weeks): negative (inactive) | carcinogen call (mouse, strain B6AKF1, males, oral dosing, site: liver, lesion: hepatoma, dosed 76 weeks, study length 76 weeks): negative (inactive) | carcinogen call (mouse, strain B6AKF1, males, oral dosing, site: lung, lesion: adenoma, dosed 76 weeks, study length 76 weeks): negative (inactive) | carcinogen call (mouse, strain B6C3F1, females, oral dosing, site: any site (literature study), lesion: one or several types, types not named, dosed 76 weeks, study length 76 weeks): negative (inactive) | carcinogen call (mouse, strain B6C3F1, females, oral dosing, site: liver, lesion: hepatoma, dosed 76 weeks, study length 76 weeks): negative (inactive) | carcinogen call (mouse, strain B6C3F1, females, oral dosing, site: lung, lesion: several types, types named in the paper, dosed 76 weeks, study length 76 weeks): negative (inactive) | TD50 (mouse, strain B6C3F1, males, oral dosing, site: any site (literature study), lesion: several types, types named in the paper, dosed 76 weeks, study length 76 weeks): 10.5 mg/kg/day (inactive) | TD50 (mouse, strain B6C3F1, males, oral dosing, site: liver, lesion: hepatoma, dosed 76 weeks, study length 76 weeks): 36.7 mg/kg/day (inactive) | TD50 (mouse, strain B6C3F1, males, oral dosing, site: lung, lesion: adenoma, dosed 76 weeks, study length 76 weeks): 36.7 mg/kg/day (inactive)

CN(C)/C=N/c1nnc(/C=C/c2ccc([N+](=O)[O-])o2)o1
TD50 (rat, strain Sprague-Dawley, females, in feed, site: any site (literature study), lesion: several types, types named in the paper, dosed 46 weeks, study length 66 weeks): 20.6 mg/kg/day | TD50 (rat, strain Sprague-Dawley, females, in feed, site: duodenum, lesion: adenocarcinoma, dosed 46 weeks, study length 66 weeks): 336 mg/kg/day | TD50 (rat, strain Sprague-Dawley, females, in feed, site: duodenum, lesion: adenomatous polyp, dosed 46 weeks, study length 66 weeks): 336 mg/kg/day | TD50 (rat, strain Sprague-Dawley, females, in feed, site: forestomach, lesion: squamous-cell papilloma, dosed 46 weeks, study length 66 weeks): 221 mg/kg/day | TD50 (rat, strain Sprague-Dawley, females, in feed, site: lung, lesion: alveolar-cell carcinoma, dosed 46 weeks, study length 66 weeks): 683 mg/kg/day | TD50 (rat, strain Sprague-Dawley, females, in feed, site: mammary gland, lesion: adenocarcinoma, dosed 46 weeks, study length 66 weeks): 20.4 mg/kg/day | TD50 (rat, strain Sprague-Dawley, females, in feed, site: mammary gland, lesion: several types, types named in the paper, dosed 46 weeks, study length 66 weeks): 22.4 mg/kg/day

O=NN1CCC[C@H]1C(=O)O
TD50 (rat, strain MRC, females, in drinking water, site: any site (literature study), lesion: several types, types named in the paper, dosed 75 weeks, study length 104 weeks): 6.69 mg/kg/day (inactive) | carcinogen call (rat, strain MRC, males, in drinking water, site: any site (literature study), lesion: several types, types named in the paper, dosed 75 weeks, study length 104 weeks): negative (inactive)

C=CC(=O)c1ccc2c(c1)OCO2
carcinogen call (rat, strain Charles River CD (Sprague-Dawley), males, in feed, site: liver, lesion: carcinoma, dosed 73 weeks, study length 95 weeks): negative (inactive)
